Assay results taken from patent US10597388B2, “Pyridazinone herbicides” (FMC CORPORATION, priority 2014, dated 2020).

What was measured:
Test in all cases: Test C greenhouse herbicide test, pre- and postemergence
Assay type in all cases: in vivo
[1] = test system: lambsquarters (Chenopodium album)
How it was run: (§1)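 Seeds sown in loam–sand blend treated preemergence; plants in peat-based medium sprayed postemergence at 2–18 cm (1- to 4-leaf stage); chemicals in non-phytotoxic solvent with surfactant. Greenhouse 13–15 d, then visual rating versus controls on 0–100 scale (0 no effect, 100 complete control).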

[2] = test system: nutsedge, yellow (yellow nutsedge, Cyperus esculentus)
How it was run: as §1

[3] = test system: pigweed (Amaranthus retroflexus)
How it was run: as §1

[4] = test system: galium (catchweed bedstraw, Galium aparine)
How it was run: as §1

[5] = test system: barnyardgrass (Echinochloa crus-galli)
How it was run: as §1

[6] = test system: foxtail, giant (giant foxtail, Setaria faberii)
How it was run: as §1

[7] = test system: wheat (winter wheat, Triticum aestivum)
How it was run: as §1

[8] = test system: waterhemp (common waterhemp, Amaranthus rudis)
How it was run: as §1

[9] = test system: corn (Zea mays)
How it was run: as §1

[10] = test system: ragweed (common ragweed, Ambrosia elatior)
How it was run: as §1

[11] = test system: johnsongrass (Sorghum halepense)
How it was run: as §1

[12] = test system: velvetleaf (Abutilon theophrasti)
How it was run: as §1

[13] = test system: morningglory (Ipomoea coccinea)
How it was run: as §1

[14] = test system: soybean (Glycine max)
How it was run: as §1

[15] = test system: ryegrass, Italian (Italian ryegrass, Lolium multiflorum)
How it was run: as §1

[16] = test system: blackgrass (Alopecurus myosuroides)
How it was run: as §1

[17] = Postemergence, 31 g ai/ha, 0 to 100 scale (0 no effect, 100 complete control)
[18] = Postemergence, 125 g ai/ha, scale 0 to 100, 0 is no effect, 100 is complete control
[19] = Postemergence, 250 g ai/ha, scale 0 to 100, 0 no effect, 100 complete control, 13 to 15 d
[20] = Preemergence, 31 g ai/ha, scale 0 to 100, 0 is no effect, 100 is complete control
[21] = Preemergence, 62 g ai/ha, scale 0 to 100, 0 is no effect, 100 is complete control
[22] = Preemergence, 125 g ai/ha, scale 0 to 100, 0 is no effect, 100 is complete control
[23] = Preemergence, 250 g ai/ha, scale 0 to 100 (0 no effect, 100 complete control)
[24] = postemergence, 62 g ai/ha, scale 0 to 100, 0 no effect, 100 complete control

**Q.** What does the source list for `Cc1cc(C)c2sc(C)c(-c3c(OC(=O)OC(C)C)c(C)nn(C)c3=O)c2c1` [Compound 67]?
**A.** Lambsquarters plant response rating [1, 17]: 85; Plant response rating, Lambsquarters [1, 18]: 90; Plant response rating, Lambsquarters [1, 19]: 100; Plant response rating, Lambsquarters [1, 20]: 80; Plant response rating, Lambsquarters [1, 21]: 80; Plant response rating, Lambsquarters [1, 22]: 85; Lambsquarters plant response rating [1, 23]: 85; Lambsquarters plant response rating [1, 24]: 95; Nutsedge, Yellow plant response rating [2, 17]: 65; Plant response rating, Nutsedge, Yellow [2, 18]: 80; Plant response rating, Nutsedge, Yellow [2, 19]: 85; Plant response rating, Nutsedge, Yellow [2, 20]: 10; Plant response rating, Nutsedge, Yellow [2, 21]: 20; Plant response rating, Nutsedge, Yellow [2, 22]: 55; Nutsedge, Yellow plant response rating [2, 23]: 70; Nutsedge, Yellow plant response rating [2, 24]: 70; Pigweed plant response rating [3, 17]: 100; Plant response rating, Pigweed [3, 18]: 80; Plant response rating, Pigweed [3, 19]: 85; Plant response rating, Pigweed [3, 20]: 75; Plant response rating, Pigweed [3, 21]: 90; Plant response rating, Pigweed [3, 22]: 95; Pigweed plant response rating [3, 23]: 100; Pigweed plant response rating [3, 24]: 85; Galium plant response rating [4, 17]: 90; Plant response rating, Galium [4, 18]: 95; Plant response rating, Galium [4, 19]: 90; Plant response rating, Galium [4, 20]: 70; Plant response rating, Galium [4, 21]: 90; Plant response rating, Galium [4, 22]: 90; Galium plant response rating [4, 23]: 90; Galium plant response rating [4, 24]: 95; Barnyardgrass plant response rating [5, 17]: 25; Plant response rating, Barnyardgrass [5, 18]: 35; Plant response rating, Barnyardgrass [5, 19]: 45; Plant response rating, Barnyardgrass [5, 20]: 5; Plant response rating, Barnyardgrass [5, 21]: 20; Plant response rating, Barnyardgrass [5, 22]: 40; Barnyardgrass plant response rating [5, 23]: 80; Barnyardgrass plant response rating [5, 24]: 35; Foxtail, Giant plant response rating [6, 17]: 70; Plant response rating, Foxtail, Giant [6, 18]: 80; Plant response rating, Foxtail, Giant [6, 19]: 85; Plant response rating, Foxtail, Giant [6, 20]: 75; Plant response rating, Foxtail, Giant [6, 21]: 80; Plant response rating, Foxtail, Giant [6, 22]: 98; Foxtail, Giant plant response rating [6, 23]: 100; Foxtail, Giant plant response rating [6, 24]: 75; Wheat plant response rating [7, 17]: 0; Plant response rating, Wheat [7, 18]: 0; Plant response rating, Wheat [7, 19]: 0; Plant response rating, Wheat [7, 20]: 0; Plant response rating, Wheat [7, 21]: 0; Plant response rating, Wheat [7, 22]: 0; Wheat plant response rating [7, 23]: 0; Wheat plant response rating [7, 24]: 0; Waterhemp plant response rating [8, 17]: 60; Plant response rating, Waterhemp [8, 18]: 75; Plant response rating, Waterhemp [8, 19]: 70; Plant response rating, Waterhemp [8, 20]: 70; Plant response rating, Waterhemp [8, 21]: 80; Plant response rating, Waterhemp [8, 22]: 65; Waterhemp plant response rating [8, 23]: 85; Waterhemp plant response rating [8, 24]: 70; Corn plant response rating [9, 17]: 5; Plant response rating, Corn [9, 18]: 10; Plant response rating, Corn [9, 19]: 20; Plant response rating, Corn [9, 20]: 0; Plant response rating, Corn [9, 21]: 0; Plant response rating, Corn [9, 22]: 0; Corn plant response rating [9, 23]: 0; Corn plant response rating [9, 24]: 5; Ragweed plant response rating [10, 17]: 70; Plant response rating, Ragweed [10, 18]: 98; Plant response rating, Ragweed [10, 19]: 95; Plant response rating, Ragweed [10, 20]: 60; Plant response rating, Ragweed [10, 21]: 85; Plant response rating, Ragweed [10, 22]: 100; Ragweed plant response rating [10, 23]: 98; Ragweed plant response rating [10, 24]: 75; Johnsongrass plant response rating [11, 17]: 5; Plant response rating, Johnsongrass [11, 18]: 5; Plant response rating, Johnsongrass [11, 19]: 10; Plant response rating, Johnsongrass [11, 20]: 10; Plant response rating, Johnsongrass [11, 21]: 20; Plant response rating, Johnsongrass [11, 22]: 10; Johnsongrass plant response rating [11, 23]: 30; Johnsongrass plant response rating [11, 24]: 5; Velvetleaf plant response rating [12, 17]: 70; Plant response rating, Velvetleaf [12, 18]: 85; Plant response rating, Velvetleaf [12, 19]: 98; Plant response rating, Velvetleaf [12, 20]: 10; Plant response rating, Velvetleaf [12, 21]: 35; Plant response rating, Velvetleaf [12, 22]: 60; Velvetleaf plant response rating [12, 23]: 75; Velvetleaf plant response rating [12, 24]: 85; Morningglory plant response rating [13, 17]: 95; Plant response rating, Morningglory [13, 18]: 100; Plant response rating, Morningglory [13, 19]: 100; Plant response rating, Morningglory [13, 20]: 70; Plant response rating, Morningglory [13, 21]: 80; Plant response rating, Morningglory [13, 22]: 80; Morningglory plant response rating [13, 23]: 90; Morningglory plant response rating [13, 24]: 95; Soybean plant response rating [14, 17]: 5; Plant response rating, Soybean [14, 18]: 5; Plant response rating, Soybean [14, 19]: 10; Plant response rating, Soybean [14, 20]: 0; Plant response rating, Soybean [14, 21]: 0; Plant response rating, Soybean [14, 22]: 0; Soybean plant response rating [14, 23]: 0; Soybean plant response rating [14, 24]: 5; Ryegrass, Italian plant response rating [15, 17]: 80; Plant response rating, Ryegrass, Italian [15, 18]: 85; Plant response rating, Ryegrass, Italian [15, 19]: 85; Plant response rating, Ryegrass, Italian [15, 20]: 30; Plant response rating, Ryegrass, Italian [15, 21]: 40; Plant response rating, Ryegrass, Italian [15, 22]: 85; Ryegrass, Italian plant response rating [15, 23]: 90; Ryegrass, Italian plant response rating [15, 24]: 80; Blackgrass plant response rating [16, 17]: 40; Plant response rating, Blackgrass [16, 18]: 65; Plant response rating, Blackgrass [16, 19]: 80; Plant response rating, Blackgrass [16, 20]: 60; Plant response rating, Blackgrass [16, 21]: 30; Plant response rating, Blackgrass [16, 22]: 40; Blackgrass plant response rating [16, 23]: 60; Blackgrass plant response rating [16, 24]: 60
